According to patent EP4775586A1, “DEUTERATED TETRACYCLIC DERIVATIVE AND USE THEREOF” (priority 2023, dated 2025):

Key:
[1] = Pharmacokinetics and lung tissue distribution in mice, LC-MS/MS; type: in vivo, Balb/C mice; settings: mouse, in vivo, po, 100 mg/kg
Protocol: In this example, the pharmacokinetic parameters and lung tissue distribution of the deuterated compounds YF027, YF032, YF036, and YF044 and their respective non-deuterated control compounds (A, B, C, and D) were determined.
Balb/C mice, male (1 group at each time point, 5 mice per group, 55 mice per compound in total), 7-8 weeks old, weighing about 20 g, animal source: Beijing Vital River Laboratory Animal Technology Co., Ltd.
The test compound was completely dissolved in an 8% Tween-80 aqueous solution. A 10 mg/mL drug liquid was prepared for intraperitoneal injection and intragastric administration.
Single intragastric administration was performed at a dose of 100 mg/kg. The pharmacokinetic differences between the deuterated compounds YF027, YF032, YF036, and YF044 and their respective non-deuterated controls A, B, C, and D were compared.
The mice were fasted overnight before administration. In the experiment, orbital venous blood and lung tissue were collected from the mice at time points of no administration group (0 min) and 10 min, 20 min, 30 min, 1 h, 2 h, 3 h, 4 h, 6 h, 8 h, and 24 h after intragastric administration, and about 300 µL of blood was collected from the eyeballs each time.
The collected blood sample was placed in an anticoagulation tube, and quickly inverted and mixed well. The tube was temporarily placed on ice after being labeled. The blood samples temporarily stored on ice were subjected to low-temperature centrifugation within 1 h at 4 °C at 3000 rpm for 10 min. The supernatant obtained after centrifugation was plasma. The plasma was transferred to a new centrifuge tube and stored in a refrigerator at -80 °C for subsequent detection.
The lung tissues of the mice were collected, washed with pre-cooled normal saline to remove the residual blood and tissue fluid, dried with absorbent paper, weighed with a balance, and placed into a centrifuge tube. The tubes were marked and stored in a refrigerator at -80 °C.
The concentrations of the compounds of the present disclosure and control compounds in plasma and lung tissue were determined using LC-MS/MS. Table 2. Pharmacokinetic parameters of compound YF027 of the present disclosure and control compound A

[2] = system: Mycobacterium tuberculosis H37Rv; test: Minimum inhibitory concentration (MIC90) against Mycobacterium tuberculosis H37Rv, Middlebrook 7H9, 96-well plate, 15 days; type: cell-based; settings: Mycobacterium tuberculosis H37Rv, 15 days of incubation, 90% inhibition of growth, visual reading

Cl.[2H]C1([2H])CCCC([2H])([2H])N1C([2H])([2H])c1c(O)cc(C(C)(C)C)c2oc3c4ccc(O)cc4oc(=O)c3c12 [YF027, 10-(tert-Butyl)-3,8-dihydroxy-7-((piperidin-1-yl-2,2,6,6-d4)methyl-d2)-6H-benzofuran[3,2-c]chromen-6-one hydrochloride]
AUC0-∞ [1]: 380.76 ng·h/mL
CL [1]: 262.63 L/h/kg
Cmax [1]: 100.26 ng/mL
Lung tissue distribution Cmax [1]: 1406.73 ng/g
Tmax [1]: 0.5 h
t1/2 [1]: 1.83 h
AUC0-t ([1]; 24 h): 367.05 ng·h/mL
MIC90 [2]: ≤3.9 ng/mL
